According to patent EP2345639A1, “Cyclic hydroxylamine derivatives, their preparation and use as antioxidants” (ABIOGEN PHARMA S.p.A., priority 2009, dated 2011):

How the values were obtained:
healthy animals = test: Effect of the compounds on healthy animals (same in vivo assay, cerebral oxidative parameters); design: species or system mice
Description: 10 mice were used for each treatment group. For each compound 50 mg/kg were administered intraperitoneally (IP) for three consecutive days (day 0, 1 and 2); half the animals (5) also received IP 16.7 mg/kg of doxorubicin immediately after the first treatment (day 0). On the day after the last administration (day 3) the animals were killed by neck dislocation and the brains were removed, weighed and frozen in liquid nitrogen.
For the analyses of oxidative stress, 100 mg/ml of brain homogenate was prepared in HEB^(*) buffer (pH 7.4 EDTA/HEPES^(**)) containing a mixture of enzyme inhibitors (Leupeptin, Pepstatin, Aprotinin, BHA).
The evaluation parameters were: • BrW/BWi: ratio between final brain weight and initial body weight (day 0); • Prot. Hmg: total proteins in the homogenate (BCA method, i.e. bicinchoninic acid); • Prot. Ox: oxidized proteins in the Hmg by means of a colorimetric method using dinitrophenylhydrazone (DNPH); • GSH: reduced glutathione in the supernatant (sn) of the Hmg, obtained after precipitation with metaphosphoric acid (MPA), by means of a colorimetric method using dithiodinitrobenzene (DTNB); • CAT: catalase in the Hmg by a colorimetric method using potassium dichromate; • SOD: superoxide dismutase by a colorimetric method using SOD Reagent (xanthine, EDTA, nitroblue tetrazole, Na2CO3, BSA, i.e. bovine serum albumin); • GST: glutathione S-transferase in the supernatant by a colorimetric method using chlorodinitrobenzene (CDNB) and GSH; and • GPx: glutathione peroxidase in the supernatant after addition of GSH and t-BuOOH, heating and precipitation with MPA; followed by GSH method with DTNB. The assay was performed on the compounds (1)-(5) and (7)-(11) and on edaravone (E), as comparative compound.
The mean % effect, on all the parameters simultaneously, of the triple treatment in healthy animal, as mean percentage change relative to the vehicle. This value is useful as an approximate safety index of the oxidative state of the brain, i.e. the capacity of the compounds of the invention not to alter cerebral homeostasis in healthy animals.

[1] = system: C6 cells (rat glioma) and BAEC cells (bovine aortic endothelial); test: In vitro inhibition of CHP-induced oxidative stress (DCF fluorescence); type: cell-based; details: 500 µM CHP, 4, 20, 100 and 500 µM compound, 30 minutes; depending on the concentrations and cell line
Description: The method used was essentially the one reported by Rüweler M. et al. ("Inhibition of peroxide-induced radical generation by plant polyphenols in C6 astroglioma cells" (2008) Toxicol in vitro 22, 1377-81), with a few minor modifications.
The cells were seeded in phenol-red free DMEM (Sigma Aldrich) into 96-well plates with 5% FBS and 20 mM HEPES at a density of 40,000 cells/well. After 48 hours, the medium was substituted by HBSS (Hanks' Balanced Salt Solution, Sigma) containing 10 µM of dihydro-2',7'-dichlorofluorescein diacetate (H2DCF-DA, Sigma Aldrich) and incubated in darkness for 30 minutes at 37 °C, in order to load the cells with fluorescent dye. H2DCF-DA was hydrolyzed enzymatically by the intracellular esterases to form non-fluorescent H2DCF, which was then rapidly oxidized to form 2',7'-dichlorofluorescein (DCF) being highly fluorescent in the presence of reactive species (RS). The intensity of DCF fluorescence is directly proportional to the amount of RS formed.
After carrying out two washes, the cells were exposed to 500 µM of CHP and various concentrations (4, 20, 100 and 500 µM) of the compounds of the invention for 30 minutes at 37 °C. Fluorescence was then measured, after cell washing, by a microplate reader at an excitation wavelength of 485 nm and an emission wavelength of 535 nm.
Six wells per plate per concentration of test composition (compound + CHP) and per control (HBSS without CHP) were measured and 12 wells were used as reference for CHP-induced stress. In addition, each 96-well plate contained 6 wells that received the highest concentration of the tested compounds without CHP, to investigate whether the compounds of the invention alone were able to induce cellular radical formation.
When using this assay, it should be borne in mind that DCF fluorescence is a generalized indicator of oxidative stress rather than of any particular reactive species, i.e. it is not a direct assay for H2O2 or other reactive species (Halliwell B, Whiteman M. (2004) "Measuring reactive species and oxidative damage in vivo and in cell culture: how should you do it and what do the results mean?" Br. J. Pharmacol. 142 231-255). Therefore, when an increase in DCF fluorescence induced by exposure of cells to CHP was measured, as was carried out in these assays, it was not possible to deduce which reactive species was responsible. Inhibition of CHP-induced fluorescence was evaluated by means of different concentrations of the compounds of the invention and comparative compounds such as Trolox and edaravone.

female CD-1 mice = test: Acute toxicity study, intraperitoneal, single dose; details: in vivo
Description: This study was carried out with the purpose of investigating the toxicity of a single dose of the listed compounds administered to ICR (CD-1) female mice. According to the current OECD guideline no.
The mice used were all female and were treated by intraperitoneal injection administration. The animals were observed individually and regularly for the first 4 hours and within 24 hours after administration, and then twice a day for the whole observation period. As soon as the animals were stabilized, observations at the weekend were undertaken once only during the day.
The evaluated parameters included the survival, body weight development, variations in skin and fur, changes in ocular, conjunctival and buccal mucous membranes, changes in activities of the respiratory, circulatory, autonomous and central nervous systems, changes in somatomotor activity and in behaviour.
Any appearance of tremors, convulsions, salivation, diarrhea, lethargy, drowsiness and coma were attentively and regularly monitored. At the end of the observation period, a post-mortem was carried out on all the animals.

[2] = healthy mice, 50 mg/kg IP x3 days, percentage change relative to the vehicle
[3] = healthy mice, 50 mg/kg IP for three consecutive days, mean over all parameters, D = doxorubicin alone, 50 mg/kg

SMILES | Brain/BWi (healthy animals; [2]) [%] | CAT/pr (healthy animals; [2]) [%] | GPX/pr (healthy animals; [2]) [%] | GSH/pr (healthy animals; [2]) [%] | GST/pr (healthy animals; [2]) [%] | Prot. Hmg (healthy animals; [2]) [%] | Prot. Ox/pr (healthy animals; [2]) [%] | SOD/pr (healthy animals; [2]) [%] | Inhibition of CHP-induced fluorescence [1] | Average % variation with respect to the vehicle (healthy animals; [3]) | toxic effect (female CD-1 mice; Example 23) | Brain/BWi (healthy animals; mouse, in vivo, ip, 50 mg/kg) [%] | CAT/pr (healthy animals; mouse, in vivo, ip, 50 mg/kg) [%] | GPX/pr (healthy animals; mouse, in vivo, ip, 50 mg/kg) [%] | GSH/pr (healthy animals; mouse, in vivo, ip, 50 mg/kg) [%] | GST/pr (healthy animals; mouse, in vivo, ip, 50 mg/kg) [%] | Prot. Ox/pr (healthy animals; mouse, in vivo, ip, 50 mg/kg) [%] | SOD/pr (healthy animals; mouse, in vivo, ip, 50 mg/kg) [%] | also measured
CC1=NN(c2ccccc2)C(=O)C1 [edaravone, reference compound] | 2.7 | -5.0 | -6.7 | -5.5 | -3.1 | 3.7 | -2.3 | -2.2 | 10-50% | – | – | – | – | – | – | – | – | – | Average % variation with respect to the vehicle (healthy animals; healthy mice, 50 mg/kg IP for three consecutive days, mean over all parameters, D = doxorubicin alone): -2.7%
CC1(C)CC(=O)C(C2CCCCN2O)C(=O)C1 (stereo not drawn) [(3), 2-(1-hydroxypiperidin-2-yl)-5,5-dimethylcyclohexane-1,3-dione] | 1.4 | -10.5 | -1.8 | 2.0 | 4.1 | 2.5 | -8.6 | -2.8 | – | did not significantly alter the parameters | – | – | – | – | – | – | – | – | Average % variation with respect to the vehicle (healthy animals; healthy mice, 50 mg/kg IP for three consecutive days, mean over all parameters, D = doxorubicin alone, listed as V+(3), 50 mg/kg): -0.2%
O=C1CCC(=O)C1C1COCCN1O (stereo not drawn) [(7), 2-(4-hydroxymorpholin-3-yl)-cyclopentane-1,3-dione] | -9.8 | -11.6 | -0.8 | -9.5 | -0.5 | 3.6 | -7.2 | 0.5 | – | did not significantly alter the parameters | – | – | – | – | – | – | – | – | Average % variation with respect to the vehicle (healthy animals; healthy mice, 50 mg/kg IP for three consecutive days, mean over all parameters, D = doxorubicin alone, listed as V+(7), 50 mg/kg): -3.5%
CC1=NN(c2ccccc2)C(=O)C1C1COCCN1O (stereo not drawn) [(11), 4-(4-hydroxymorpholin-3-yl)-3-methyl-1-phenyl-1H-pyrazol-5(4H)-one] | -2.7 | -1.6 | -3.3 | -1.2 | -0.9 | 1.7 | 1.5 | -33. | effective | did not significantly alter the parameters | – | – | – | – | – | – | – | – | Average % variation with respect to the vehicle (healthy animals; healthy mice, 50 mg/kg IP for three consecutive days, mean over all parameters, D = doxorubicin alone, listed as V+(11), 50 mg/kg): -2.0%
CC1(C)CC(=O)C(C2COCCN2O)C(=O)C1 (stereo not drawn) [(4), 2-(4-hydroxymorpholin-3-yl)-5,5-dimethylcyclohexane-1,3-dione] | – | – | – | – | – | 1.9 | – | – | effective | did not significantly alter the parameters | no toxic effect | -0.1 | -0.7 | -2.0 | -4.0 | -5.2 | -3.0 | -5.8 | Average % variation with respect to the vehicle (healthy animals; healthy mice, 50 mg/kg IP for three consecutive days, mean over all parameters, D = doxorubicin alone, listed as V+(4), 50 mg/kg): -2.1%
O=C1CC(c2ccccc2)CC(=O)C1C1COCCN1O (stereo not drawn) [(5), 2-(4-hydroxymorpholin-3-yl)-5-phenylcyclohexane-1,3-dione] | – | – | – | – | – | 5.0 | – | – | – | did not significantly alter the parameters | – | 0.1 | -8.1 | -4.1 | -6.7 | -5.8 | 1.8 | -3.7 | toxic effect (female CD-1 mice; mouse): no toxic effect; Average % variation with respect to the vehicle (healthy animals; healthy mice, 50 mg/kg IP for three consecutive days, mean over all parameters, D = doxorubicin alone, listed as V+(5), 50 mg/kg): -3.2%
O=c1oc2ccccc2c(O)c1C1COCCN1O (stereo not drawn) [(10), 4-hydroxy-3-(4-hydroxymorpholin-3-yl)-2H-chromen-2-one] | – | – | – | – | – | 3.1 | – | – | – | did not significantly alter the parameters | no toxic effect | -5.9 | -8.2 | -0.8 | -3.2 | -1.2 | 5.4 | 2.1 | Average % variation with respect to the vehicle (healthy animals; healthy mice, 50 mg/kg IP for three consecutive days, mean over all parameters, D = doxorubicin alone, listed as V+(10), 50 mg/kg): -4.4%
O=C1c2ccccc2C(=O)C1C1COCCN1O (stereo not drawn) [(8), 2-(4-hydroxymorpholin-3-yl)-2H-indene-1,3-dione] | – | – | – | – | – | – | – | – | effective | – | no toxic effect | – | – | – | – | – | – | – | Average % variation with respect to the vehicle (healthy animals; mouse, in vivo, ip, 50 mg/kg): -8.0%
